Assay results as given in paper PMC9549500, “Inhibition of TRPC4 channel activity in colonic myocytes by tricyclic antidepressants disrupts colonic motility causing constipation” (Journal of Cellular and Molecular Medicine, 2022).

Molecular target: T1, TRPC4 (Mus musculus, UniProt Q9QUQ5)
T1 construct: native channel in murine sigmoid colonic myocytes
T1 sequence (Q9QUQ5 1-974): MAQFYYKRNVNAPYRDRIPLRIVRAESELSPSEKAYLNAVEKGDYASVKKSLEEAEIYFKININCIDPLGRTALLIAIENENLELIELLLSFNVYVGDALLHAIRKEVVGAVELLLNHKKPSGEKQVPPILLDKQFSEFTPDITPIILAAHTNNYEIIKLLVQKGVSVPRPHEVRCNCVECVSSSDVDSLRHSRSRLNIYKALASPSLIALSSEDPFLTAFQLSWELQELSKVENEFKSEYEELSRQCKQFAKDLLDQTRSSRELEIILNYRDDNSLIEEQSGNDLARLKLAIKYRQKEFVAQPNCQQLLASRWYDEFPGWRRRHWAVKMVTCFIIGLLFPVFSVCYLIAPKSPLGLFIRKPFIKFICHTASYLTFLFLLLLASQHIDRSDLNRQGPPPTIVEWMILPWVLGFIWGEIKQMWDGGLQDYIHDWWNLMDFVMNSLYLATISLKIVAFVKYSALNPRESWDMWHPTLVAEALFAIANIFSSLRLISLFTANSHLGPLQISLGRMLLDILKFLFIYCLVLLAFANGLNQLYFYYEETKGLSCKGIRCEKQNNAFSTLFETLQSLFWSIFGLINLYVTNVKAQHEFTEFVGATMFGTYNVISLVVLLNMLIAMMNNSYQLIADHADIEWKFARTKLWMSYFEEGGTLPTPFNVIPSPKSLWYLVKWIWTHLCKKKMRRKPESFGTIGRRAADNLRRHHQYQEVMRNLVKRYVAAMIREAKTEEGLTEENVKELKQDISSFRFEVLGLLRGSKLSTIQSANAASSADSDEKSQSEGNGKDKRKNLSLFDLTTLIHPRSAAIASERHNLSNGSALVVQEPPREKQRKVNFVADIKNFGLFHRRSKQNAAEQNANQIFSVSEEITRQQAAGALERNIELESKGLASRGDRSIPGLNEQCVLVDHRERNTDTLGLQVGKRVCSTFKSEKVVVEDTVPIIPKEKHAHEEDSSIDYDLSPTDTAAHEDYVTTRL
Experiment: whole-cell patch clamp of CCh-evoked mIcat in murine colonic myocytes, […] Pico145; current absent in TRPC4-deficient mice
Type: cell-based

Cn1c(=O)n(CCCO)c(=O)c2c1nc(Oc1cccc(OC(F)(F)F)c1)n2Cc1ccc(Cl)cc1 [Pico145]
whole-cell patch clamp of CCh-evoked mIcat in murine colonic myocytes, 100 nM Pi: The selective and potent antagonist of TRPC4, Pico145, completely blocked the CCh‐evoked current.
